{
  "source": "paper PMC5391474",
  "about": "“Investigation of the Role of Protein Kinase D in Human Rhinovirus Replication” (Journal of Virology, 2017)",
  "assay_in_all_cases": "biochemical",
  "parameters_in_all_cases": "in vitro kinase selectivity panel, protein and lipid kinases, single concentration, ATP at Km",
  "conditions_in_all_cases": "ATP at Km",
  "key": {"CK1γ1(h)": {"molecular_target": "T1, CK1γ1(h) (Homo sapiens, UniProt Q9HCP0)", "T1 construct": "gene CSNK1G1", "T1 sequence (Q9HCP0 whole entry)": "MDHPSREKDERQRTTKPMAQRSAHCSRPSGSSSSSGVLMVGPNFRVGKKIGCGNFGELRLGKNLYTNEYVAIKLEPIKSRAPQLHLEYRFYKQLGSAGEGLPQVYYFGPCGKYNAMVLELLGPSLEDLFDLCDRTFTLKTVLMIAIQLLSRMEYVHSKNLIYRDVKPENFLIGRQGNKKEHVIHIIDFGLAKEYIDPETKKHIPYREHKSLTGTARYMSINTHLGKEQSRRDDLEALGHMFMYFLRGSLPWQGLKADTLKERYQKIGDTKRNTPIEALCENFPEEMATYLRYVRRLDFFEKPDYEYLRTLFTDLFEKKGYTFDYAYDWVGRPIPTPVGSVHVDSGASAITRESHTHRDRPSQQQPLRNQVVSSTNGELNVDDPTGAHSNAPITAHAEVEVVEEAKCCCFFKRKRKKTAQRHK", "procedure": "(§1) CRT0066101 was described previously ([48]) and was purchased for this study from Tocris, with a purity of 99.9%. CRT0066101 (XX-209) and compound XX-050 were synthesized as previously described ([68]). CRT0066051 (Y-095) was also synthesized as previously described ([69]). […] CRT0066101 can also be obtained in larger quantities from Ximbio. Inhibitors were tested in in vitro PKD kinase assays and cellular assays on PANC1 cells as previously described ([48]). The selectivity of the three PKD inhibitors was determined against a panel of protein and lipid kinases by Eurofins and the MRC PPU International Centre for Kinase Profiling (http://www.kinase-screen.mrc.ac.uk), respectively. Each inhibitor was tested at a single concentration of 1 μM and at an ATP concentration equivalent to the Km for each kinase. Having shown that HRV infection appears to activate PKD, we went on to explore the influence of chemical inhibitors of PKD on HRV replication. The compound CRT0066101 is a specific and potent PKD inhibitor that has been used in studies exploring its potential as an anticancer target ([48], [51]). This inhibitor has a 50% inhibitory concentration (IC50) of 1 nM against purified PKD in biochemical assays and a 50% effective concentration (EC50) of 1 μM in a cell-based assay (Table 1). We pretreated HeLa cells with increasing concentrations of the drug for 1 h followed by infection with HRV16. Viral replication was subsequently measured at 6 hpi by quantitative real-time PCR (qRT-PCR) (Fig. 2A) and by Western blotting using an antibody against the viral nonstructural protein 2C (Fig. 2B). […] Furthermore, we tested two novel and structurally different PKD inhibitors (CRT0066051 and XX-050) (Table 1) and confirmed that they too inhibited HRV 2C expression although with different potencies (Fig. 2D). Kinase selectivity profiling of all three PKD inhibitors was performed against a panel of protein and lipid kinases at a drug concentration of 1 μM and at an ATP concentration equivalent to the Km of each kinase (see Table S1 in the supplemental material). […] Since PKD is known to be involved in regulating the architecture of the Golgi apparatus, we confirmed the pharmacodynamic effect of these inhibitors by demon"}, "DDR2(h)": {"molecular_target": "DDR2(h) (Homo sapiens, UniProt Q16832)", "sequence (Q16832 whole entry)": "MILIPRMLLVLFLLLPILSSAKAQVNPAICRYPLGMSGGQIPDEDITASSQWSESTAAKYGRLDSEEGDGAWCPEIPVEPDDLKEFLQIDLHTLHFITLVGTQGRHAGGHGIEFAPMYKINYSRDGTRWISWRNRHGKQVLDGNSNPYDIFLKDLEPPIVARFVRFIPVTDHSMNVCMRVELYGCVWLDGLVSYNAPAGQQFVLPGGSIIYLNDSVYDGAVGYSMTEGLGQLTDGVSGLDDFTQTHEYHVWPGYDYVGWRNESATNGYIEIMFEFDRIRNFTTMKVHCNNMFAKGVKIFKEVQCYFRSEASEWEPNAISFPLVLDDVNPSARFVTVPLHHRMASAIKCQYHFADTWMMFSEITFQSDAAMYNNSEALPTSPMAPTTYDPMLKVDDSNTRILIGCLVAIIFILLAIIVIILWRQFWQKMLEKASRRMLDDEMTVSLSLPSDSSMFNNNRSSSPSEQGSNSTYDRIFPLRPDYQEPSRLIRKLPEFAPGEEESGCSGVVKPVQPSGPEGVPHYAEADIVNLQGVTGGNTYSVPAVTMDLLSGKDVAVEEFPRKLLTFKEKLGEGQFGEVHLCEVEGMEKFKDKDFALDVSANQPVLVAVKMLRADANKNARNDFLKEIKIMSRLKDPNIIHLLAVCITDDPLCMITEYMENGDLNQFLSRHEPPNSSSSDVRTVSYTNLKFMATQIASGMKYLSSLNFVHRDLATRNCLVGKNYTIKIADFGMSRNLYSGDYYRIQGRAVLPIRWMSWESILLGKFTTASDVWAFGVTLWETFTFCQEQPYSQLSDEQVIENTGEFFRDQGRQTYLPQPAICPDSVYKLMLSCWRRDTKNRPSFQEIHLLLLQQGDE", "procedure": "as §1"}, "Snk(h)": {"molecular_target": "T2, Snk(h) (Homo sapiens, UniProt Q9NYY3)", "T2 construct": "gene PLK2", "procedure": "as §1"}, "Ron(h)": {"molecular_target": "T3, Ron(h) (Homo sapiens, UniProt Q04912)", "T3 construct": "gene MST1R", "procedure": "as §1"}, "CHKB": {"molecular_target": "CHKB (Homo sapiens, UniProt Q9Y259)", "procedure": "as §1"}, "NEK2(h)": {"molecular_target": "NEK2(h) (Homo sapiens, UniProt P51955)", "sequence (P51955 whole entry)": "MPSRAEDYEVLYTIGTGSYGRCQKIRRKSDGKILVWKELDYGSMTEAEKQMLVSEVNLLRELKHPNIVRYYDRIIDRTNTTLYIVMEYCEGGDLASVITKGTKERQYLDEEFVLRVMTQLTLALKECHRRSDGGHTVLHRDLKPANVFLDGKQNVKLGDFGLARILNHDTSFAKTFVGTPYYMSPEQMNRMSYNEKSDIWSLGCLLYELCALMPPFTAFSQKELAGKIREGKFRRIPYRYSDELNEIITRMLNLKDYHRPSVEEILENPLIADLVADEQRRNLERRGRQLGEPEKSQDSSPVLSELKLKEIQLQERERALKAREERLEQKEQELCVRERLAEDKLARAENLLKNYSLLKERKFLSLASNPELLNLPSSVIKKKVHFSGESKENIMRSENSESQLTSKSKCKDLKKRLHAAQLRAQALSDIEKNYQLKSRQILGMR", "procedure": "as §1"}, "SPHK2": {"molecular_target": "SPHK2 (Homo sapiens, UniProt Q9NRA0)", "procedure": "as §1"}, "CK1δ(h)": {"molecular_target": "T4, CK1δ(h) (Homo sapiens, UniProt P48730)", "T4 construct": "gene CSNK1D", "T4 sequence (P48730 whole entry)": "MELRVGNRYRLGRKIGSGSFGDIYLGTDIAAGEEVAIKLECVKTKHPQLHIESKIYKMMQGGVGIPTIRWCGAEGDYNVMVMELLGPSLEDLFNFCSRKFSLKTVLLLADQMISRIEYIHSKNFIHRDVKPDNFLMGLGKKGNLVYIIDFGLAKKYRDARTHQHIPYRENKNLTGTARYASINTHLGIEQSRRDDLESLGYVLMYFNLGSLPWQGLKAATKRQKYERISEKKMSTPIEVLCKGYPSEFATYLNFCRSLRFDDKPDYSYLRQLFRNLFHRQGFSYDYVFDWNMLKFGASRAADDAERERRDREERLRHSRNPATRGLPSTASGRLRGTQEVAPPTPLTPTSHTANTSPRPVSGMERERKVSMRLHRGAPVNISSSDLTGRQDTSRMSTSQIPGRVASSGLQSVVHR", "procedure": "as §1"}, "MAPK2(h)": {"molecular_target": "T5, MAPK2(h) (Homo sapiens, UniProt P28482)", "T5 construct": "gene MAPK1", "T5 sequence (P28482 whole entry)": "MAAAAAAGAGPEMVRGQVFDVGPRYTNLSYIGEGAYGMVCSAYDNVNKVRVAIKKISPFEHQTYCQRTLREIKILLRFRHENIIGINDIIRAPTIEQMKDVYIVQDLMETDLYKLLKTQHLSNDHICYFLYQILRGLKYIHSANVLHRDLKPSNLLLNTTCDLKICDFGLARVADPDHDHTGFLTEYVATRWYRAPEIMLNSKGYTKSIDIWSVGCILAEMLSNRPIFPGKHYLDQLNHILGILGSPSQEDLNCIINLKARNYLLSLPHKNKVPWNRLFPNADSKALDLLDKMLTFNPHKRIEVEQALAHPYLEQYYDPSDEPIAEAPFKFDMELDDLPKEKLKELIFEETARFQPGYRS", "procedure": "as §1"}, "ZAP-70(h)": {"molecular_target": "T6, ZAP-70(h) (Homo sapiens, UniProt P43403)", "T6 construct": "gene ZAP70", "T6 sequence (P43403 whole entry)": "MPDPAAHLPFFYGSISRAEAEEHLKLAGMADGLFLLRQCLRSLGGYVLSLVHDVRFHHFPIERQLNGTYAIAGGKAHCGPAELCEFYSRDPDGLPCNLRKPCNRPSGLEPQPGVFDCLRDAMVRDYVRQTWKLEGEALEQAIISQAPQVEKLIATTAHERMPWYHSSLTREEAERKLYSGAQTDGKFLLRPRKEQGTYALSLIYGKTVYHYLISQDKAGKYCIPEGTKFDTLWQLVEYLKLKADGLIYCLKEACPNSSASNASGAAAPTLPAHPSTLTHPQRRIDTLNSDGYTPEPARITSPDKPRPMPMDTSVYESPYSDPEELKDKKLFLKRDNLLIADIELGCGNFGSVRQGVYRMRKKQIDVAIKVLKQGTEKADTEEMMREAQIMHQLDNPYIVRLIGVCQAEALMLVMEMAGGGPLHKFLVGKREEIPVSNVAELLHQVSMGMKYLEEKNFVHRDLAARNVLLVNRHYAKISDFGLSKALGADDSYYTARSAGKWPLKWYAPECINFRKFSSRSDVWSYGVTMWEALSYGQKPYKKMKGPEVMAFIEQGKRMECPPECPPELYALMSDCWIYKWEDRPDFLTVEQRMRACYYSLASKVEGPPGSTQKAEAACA", "procedure": "as §1"}, "FGFR2(h)": {"molecular_target": "FGFR2(h) (Homo sapiens, UniProt P21802)", "sequence (P21802 whole entry)": "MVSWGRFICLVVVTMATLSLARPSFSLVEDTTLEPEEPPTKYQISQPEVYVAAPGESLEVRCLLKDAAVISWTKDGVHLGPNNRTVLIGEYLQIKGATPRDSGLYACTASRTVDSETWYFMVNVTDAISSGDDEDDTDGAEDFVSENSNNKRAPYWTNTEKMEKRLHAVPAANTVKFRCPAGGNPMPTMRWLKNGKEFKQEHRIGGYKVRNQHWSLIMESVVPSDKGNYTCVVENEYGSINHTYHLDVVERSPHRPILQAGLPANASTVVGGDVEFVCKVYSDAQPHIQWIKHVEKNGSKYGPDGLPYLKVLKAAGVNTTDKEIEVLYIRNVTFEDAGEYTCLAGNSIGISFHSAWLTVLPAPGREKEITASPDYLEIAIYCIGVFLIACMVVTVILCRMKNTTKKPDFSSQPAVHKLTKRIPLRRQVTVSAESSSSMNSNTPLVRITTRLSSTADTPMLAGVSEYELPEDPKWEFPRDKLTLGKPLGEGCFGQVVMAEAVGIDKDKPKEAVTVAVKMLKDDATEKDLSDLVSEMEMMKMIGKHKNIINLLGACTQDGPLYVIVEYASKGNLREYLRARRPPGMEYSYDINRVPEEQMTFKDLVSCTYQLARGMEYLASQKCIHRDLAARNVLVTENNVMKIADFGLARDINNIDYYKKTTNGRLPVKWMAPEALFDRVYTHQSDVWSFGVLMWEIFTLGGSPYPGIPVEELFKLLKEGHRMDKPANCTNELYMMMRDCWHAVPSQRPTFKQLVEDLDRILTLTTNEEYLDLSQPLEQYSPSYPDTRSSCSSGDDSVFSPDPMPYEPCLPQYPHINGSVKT", "procedure": "as §1"}, "IR(h)": {"molecular_target": "T7, IR(h) (Homo sapiens, UniProt P06213)", "T7 construct": "gene INSR", "procedure": "as §1"}, "FGFR3(h)": {"molecular_target": "FGFR3(h) (Homo sapiens, UniProt P22607)", "sequence (P22607 whole entry)": "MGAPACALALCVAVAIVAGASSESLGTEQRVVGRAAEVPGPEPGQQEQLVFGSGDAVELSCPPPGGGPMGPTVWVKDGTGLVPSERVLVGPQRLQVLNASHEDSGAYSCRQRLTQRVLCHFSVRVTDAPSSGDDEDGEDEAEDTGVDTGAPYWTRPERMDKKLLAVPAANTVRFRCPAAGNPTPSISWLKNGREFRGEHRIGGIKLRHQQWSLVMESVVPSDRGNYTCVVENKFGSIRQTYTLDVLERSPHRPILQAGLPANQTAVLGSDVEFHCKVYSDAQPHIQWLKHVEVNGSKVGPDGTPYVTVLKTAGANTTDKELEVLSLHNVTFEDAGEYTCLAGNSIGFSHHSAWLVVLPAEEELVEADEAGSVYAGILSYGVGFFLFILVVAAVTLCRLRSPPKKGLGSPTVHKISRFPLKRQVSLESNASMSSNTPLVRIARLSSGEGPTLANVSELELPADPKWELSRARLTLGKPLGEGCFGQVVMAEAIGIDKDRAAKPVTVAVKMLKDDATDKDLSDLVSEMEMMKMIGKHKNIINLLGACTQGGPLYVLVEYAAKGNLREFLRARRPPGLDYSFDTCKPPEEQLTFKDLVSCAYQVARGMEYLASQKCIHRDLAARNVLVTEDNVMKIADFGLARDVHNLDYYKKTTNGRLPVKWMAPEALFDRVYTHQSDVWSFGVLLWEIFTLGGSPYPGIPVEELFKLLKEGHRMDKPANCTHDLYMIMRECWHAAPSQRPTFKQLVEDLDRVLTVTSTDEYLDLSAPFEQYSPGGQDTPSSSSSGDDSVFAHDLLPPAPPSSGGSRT", "procedure": "as §1"}, "CDK5/p35(h)": {"molecular_target": "T8, CDK5/p35(h) (Homo sapiens, UniProt Q00535)", "T8 construct": "p35", "procedure": "as §1"}, "PDGFRα(h)": {"molecular_target": "T9, PDGFRα(h) (Homo sapiens, UniProt P16234)", "T9 construct": "gene PDGFRA", "procedure": "as §1"}, "CSK(h)": {"molecular_target": "CSK(h) (Homo sapiens, UniProt P41240)", "procedure": "as §1"}, "PIK3CA": {"molecular_target": "PIK3CA (Homo sapiens, UniProt P42336)", "procedure": "as §1"}, "PIK3CG": {"molecular_target": "PIK3CG (Homo sapiens, UniProt P48736)", "procedure": "as §1"}},
  "data": [
    {"smiles": "CC[C@@H](N)CNc1ccnc(-c2cc(-c3cnn(C)c3)ccc2O)n1", "note": "[CRT0066101]", "values": [
      {"measurement": "inhibition at 1 µM", "setting": "CK1γ1(h)", "result": -5, "unit": "%"},
      {"measurement": "inhibition at 1 µM", "setting": "DDR2(h)", "result": -3, "unit": "%"},
      {"measurement": "inhibition at 1 µM", "setting": "Snk(h)", "result": -1, "unit": "%"},
      {"measurement": "inhibition at 1 µM", "setting": "Ron(h)", "result": -8, "unit": "%"},
      {"measurement": "inhibition at 1 µM", "setting": "CHKB", "result": 3, "unit": "%"},
      {"measurement": "inhibition at 1 µM", "setting": "NEK2(h)", "result": 0, "unit": "%"},
      {"measurement": "inhibition at 1 µM", "setting": "SPHK2", "result": 20, "unit": "%"},
      {"measurement": "inhibition at 1 µM", "setting": "CK1δ(h)", "result": 13, "unit": "%"},
      {"measurement": "inhibition at 1 µM", "setting": "MAPK2(h)", "result": -9, "unit": "%"},
      {"measurement": "inhibition at 1 µM", "setting": "ZAP-70(h)", "result": -19, "unit": "%"},
      {"measurement": "inhibition at 1 µM", "setting": "FGFR2(h)", "result": 5, "unit": "%"},
      {"measurement": "inhibition at 1 µM", "setting": "IR(h)", "result": -22, "unit": "%"},
      {"measurement": "inhibition at 1 µM", "setting": "FGFR3(h)", "result": -2, "unit": "%"},
      {"measurement": "inhibition at 1 µM", "setting": "CDK5/p35(h)", "result": 95, "unit": "%"},
      {"measurement": "inhibition at 1 µM", "setting": "PDGFRα(h)", "result": 14, "unit": "%"},
      {"measurement": "inhibition at 1 µM", "setting": "CSK(h)", "result": 7, "unit": "%"},
      {"measurement": "inhibition at 1 µM", "setting": "PIK3CA", "result": 1, "unit": "%"},
      {"measurement": "inhibition at 1 µM", "setting": "PIK3CG", "result": 29, "unit": "%"}
    ]}
  ]
}
